Our source for the tumor response values is patent US6576612B1, “Antitumor therapy comprising distamycin derivatives” (Pharmacia Italia S.p.A., priority 2000, dated 2003).

SMILES strings stand for the structures.

For the assay, the system named is solid tumors. Briefly: Phase I pharmacological trial, iv single administration every three weeks. It is filed as in vivo, patients. The settings on record: one patient suffering from gastrointestinal sarcoma, dose level 5.1 mg/m^2, iv infusion. The method, then: A phase I pharmacological trial was carried out to investigate the iv administration of the title compound given as a single administration every three weeks to patients with solid tumors.
The starting dose of 0.85 mg/m^2 was initially escalated in an accelerated design (100% dose increase, 1 patient/dose level) and then by a conventional dose escalation in 3-6 patient cohorts. 11 patients have been entered so far and 25 cycles have been evaluated for toxicity at dose levels of 0.85, 1.7, 3.4, 5.1 and 7.5 mg/m^2.

`C=C(Br)C(=O)Nc1cc(C(=O)Nc2cc(C(=O)Nc3cc(C(=O)Nc4cc(C(=O)NCCNC(=N)N)n(C)c4)n(C)c3)n(C)c2)n(C)c1.Cl` [PNU 166196, N-(5-{[(5-{[(5-{[(2-{[amino(imino)methyl]amino}ethyl)amino]carbonyl}-1-methyl-1H-pyrrol-3-yl)amino]carbonyl}-1-methyl-1H-pyrrol-3-yl)amino]carbonyl}-1-methyl-1H-pyrrol-3-yl)-4-[(2-bromoacryloyl)amino]-1-methyl-1H-pyrrole-2-carboxamide hydrochloride]: the tumor response result is given as “partial response”.
